# Laboratory results as given in ChEMBL document CHEMBL1147416, “Aza-bicyclic amino acid sulfonamides as alpha(4)beta(1)/alpha(4)beta(7) integrin antagonists” (Bioorg Med Chem Lett, 2004).
# Experiments:
# Integrin alpha-4/beta-1 = Integrin alpha-4/beta-1 (Homo sapiens, UniProt P05556+P13612); test: In vitro inhibition of binding of integrin alpha4-beta1 to immobilized VCAM-1 expressed on endothelial cell surface.; assay type: functional, cell-based
# [1] = In vitro inhibition of binding of integrin alpha4-beta7 to immobilized MAdCAM-1 expressed on epithelial cell surface.; assay type: functional, cell-based
# [2] = Inhibition of integrin alpha4-beta7 binding to immobilized MAdCAM-1 (mucosal addressin cell adhesion molecule-1) of epithelial cells at 5 uM; assay type: functional
# Integrin alpha-4/beta-1, sequence (P05556 whole entry): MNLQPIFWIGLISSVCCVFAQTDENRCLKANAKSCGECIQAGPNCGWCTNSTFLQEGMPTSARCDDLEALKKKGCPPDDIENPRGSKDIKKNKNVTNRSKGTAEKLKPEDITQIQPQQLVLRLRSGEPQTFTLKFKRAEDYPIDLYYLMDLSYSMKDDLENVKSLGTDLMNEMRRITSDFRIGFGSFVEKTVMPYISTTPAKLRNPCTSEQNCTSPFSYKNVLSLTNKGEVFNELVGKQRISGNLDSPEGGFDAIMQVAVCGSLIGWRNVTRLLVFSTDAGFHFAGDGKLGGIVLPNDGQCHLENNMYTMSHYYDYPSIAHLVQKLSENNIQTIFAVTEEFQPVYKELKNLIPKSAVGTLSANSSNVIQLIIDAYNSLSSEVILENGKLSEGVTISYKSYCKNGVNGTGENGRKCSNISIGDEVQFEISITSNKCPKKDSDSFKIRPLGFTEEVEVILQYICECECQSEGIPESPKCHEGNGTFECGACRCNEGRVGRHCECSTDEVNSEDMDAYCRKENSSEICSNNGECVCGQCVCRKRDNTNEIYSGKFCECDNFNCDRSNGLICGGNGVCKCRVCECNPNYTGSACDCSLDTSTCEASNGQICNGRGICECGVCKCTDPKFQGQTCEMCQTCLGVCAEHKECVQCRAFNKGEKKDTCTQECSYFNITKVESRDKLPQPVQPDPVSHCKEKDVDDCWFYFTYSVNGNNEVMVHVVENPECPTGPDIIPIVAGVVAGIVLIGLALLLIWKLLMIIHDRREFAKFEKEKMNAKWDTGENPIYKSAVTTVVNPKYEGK
# Integrin alpha-4/beta-1, sequence (P13612 whole entry): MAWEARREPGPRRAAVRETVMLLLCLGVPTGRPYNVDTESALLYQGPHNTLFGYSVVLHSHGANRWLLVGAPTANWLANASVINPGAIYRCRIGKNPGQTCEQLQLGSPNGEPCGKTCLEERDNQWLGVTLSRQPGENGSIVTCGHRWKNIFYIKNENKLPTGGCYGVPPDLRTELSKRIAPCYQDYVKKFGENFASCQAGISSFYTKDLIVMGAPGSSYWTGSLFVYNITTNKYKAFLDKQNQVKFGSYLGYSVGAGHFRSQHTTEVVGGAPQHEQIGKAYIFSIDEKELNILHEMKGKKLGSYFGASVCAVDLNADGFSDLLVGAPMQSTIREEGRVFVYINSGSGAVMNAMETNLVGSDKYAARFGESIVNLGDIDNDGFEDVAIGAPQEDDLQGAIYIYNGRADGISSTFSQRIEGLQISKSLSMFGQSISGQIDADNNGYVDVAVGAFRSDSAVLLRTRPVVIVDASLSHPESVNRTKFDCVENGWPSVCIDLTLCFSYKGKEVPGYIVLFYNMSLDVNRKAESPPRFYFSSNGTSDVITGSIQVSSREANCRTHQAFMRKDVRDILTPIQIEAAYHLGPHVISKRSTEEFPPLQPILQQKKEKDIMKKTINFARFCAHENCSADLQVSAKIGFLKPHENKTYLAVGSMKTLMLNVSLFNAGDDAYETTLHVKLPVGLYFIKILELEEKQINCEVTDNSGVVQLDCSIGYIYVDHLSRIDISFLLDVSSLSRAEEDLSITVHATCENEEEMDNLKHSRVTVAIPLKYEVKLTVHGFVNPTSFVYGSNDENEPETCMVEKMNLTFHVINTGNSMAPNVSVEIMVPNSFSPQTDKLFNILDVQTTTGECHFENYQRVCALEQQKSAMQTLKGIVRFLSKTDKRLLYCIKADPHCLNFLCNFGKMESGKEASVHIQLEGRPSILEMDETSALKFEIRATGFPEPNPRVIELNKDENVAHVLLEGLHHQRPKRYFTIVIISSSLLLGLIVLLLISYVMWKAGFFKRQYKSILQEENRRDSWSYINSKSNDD
SMILES,IC50 (Integrin alpha-4/beta-1),IC50 [1],inhibition at 5 µM [2]
Cc1ccc(S(=O)(=O)N2C3CCC(CC3)C2C(=O)N[C@@H](Cc2ccc(NC(=O)c3c(Cl)cccc3Cl)cc2)C(=O)O)cc1 (some centres undefined),,320 nM,
O=C(O)[C@H](Cc1ccc(N2C(=O)c3ccccc3C2=O)cc1)NC(=O)[C@@H]1C2CCC(CC2)N1S(=O)(=O)c1ccccc1,,312 nM,
O=C(Nc1ccc(C[C@H](NC(=O)C2C3CCC(CC3)N2S(=O)(=O)c2ccccc2C(F)(F)F)C(=O)O)cc1)c1cc(Cl)nc(Cl)c1 (some centres undefined),81 nM,102 nM,
CC(=O)N1CSC[C@@H]1C(=O)N[C@@H](Cc1ccc(OCc2c(Cl)cccc2Cl)cc1)C(=O)O,410 nM,90 nM,
Cc1ccc(S(=O)(=O)N2C3CCC(CC3)C2C(=O)N[C@@H](Cc2ccc(NC(=O)c3c(Cl)cc(Cl)cc3Cl)cc2)C(=O)O)cc1 (some centres undefined),,430 nM,
O=C(Nc1ccc(C[C@H](NC(=O)[C@@H]2C3CCC(CC3)N2S(=O)(=O)c2cccc3cccnc23)C(=O)O)cc1)c1cc(Cl)nc(Cl)c1,150 nM,151 nM,
Cc1ccc(S(=O)(=O)N2C3CCC(CC3)C2C(=O)N[C@@H](Cc2ccc(NC(=O)c3ccccc3)cc2)C(=O)O)cc1 (some centres undefined),,,30%
Cc1ccc(S(=O)(=O)N2C3CCC(CC3)C2C(=O)N[C@@H](Cc2ccc(NC(=O)Cc3c(Cl)cccc3Cl)cc2)C(=O)O)cc1 (some centres undefined),,,28%
O=C(Nc1ccc(C[C@H](NC(=O)[C@H]2C3CCC(CC3)N2S(=O)(=O)c2ccccc2)C(=O)O)cc1)c1c(Cl)cccc1Cl,1600 nM,,
O=C(Nc1ccc(C[C@H](NC(=O)[C@@H]2C3CCC(CC3)N2S(=O)(=O)c2ccccc2)C(=O)O)cc1)c1c(Cl)cccc1Cl,19 nM,94 nM,
COc1cccc(OC)c1-c1ccc(C[C@H](NC(=O)[C@@H]2C3CCC(CC3)N2S(=O)(=O)c2ccccc2)C(=O)O)cc1,,90 nM,
COc1cccc(OC)c1-c1ccc(C[C@H](NC(=O)[C@@H]2C[C@@H](c3ccccc3)CN2S(=O)(=O)c2ccccc2)C(=O)O)cc1,30 nM,119 nM,
O=C(Nc1ccc(C[C@H](NC(=O)[C@@H]2C3CCC(CC3)N2S(=O)(=O)c2ccccc2)C(=O)O)cc1)c1ccncc1,36 nM,175 nM,
Cc1ccc(S(=O)(=O)N2C3CCC(CC3)C2C(=O)N[C@@H](Cc2ccc(NC(=O)Nc3c(Cl)cccc3Cl)cc2)C(=O)O)cc1 (some centres undefined),1600 nM,,

# The remaining compounds from weak to strong by IC50 [1], led by results:
IC50 (Integrin alpha-4/beta-1),IC50 [1],SMILES,inhibition at 5 µM [2]
11 nM,64 nM,O=C(Nc1ccc(C[C@H](NC(=O)C2C3CCC(CC3)N2S(=O)(=O)c2ccc(Cl)s2)C(=O)O)cc1)c1cc(Cl)nc(Cl)c1 (some centres undefined),
30 nM,62 nM,O=C(Nc1ccc(C[C@H](NC(=O)[C@@H]2C3CCC(CC3)N2S(=O)(=O)c2cccs2)C(=O)O)cc1)c1c(Cl)cccc1Cl,
5 nM,32 nM,O=C(Nc1ccc(C[C@H](NC(=O)[C@@H]2C3CCC(CC3)N2S(=O)(=O)c2cccs2)C(=O)O)cc1)c1cc(Cl)nc(Cl)c1,
12 nM,22 nM,O=C(Nc1ccc(C[C@H](NC(=O)[C@@H]2C3CCC(CC3)N2S(=O)(=O)c2cccc3ccncc23)C(=O)O)cc1)c1cc(Cl)nc(Cl)c1,
69 nM,14 nM,O=C(Nc1ccc(C[C@H](NC(=O)C2C3CCC(CC3)N2S(=O)(=O)c2cc(Cl)c(Cl)s2)C(=O)O)cc1)c1cc(Cl)nc(Cl)c1 (some centres undefined),
12 nM,13 nM,O=C(Nc1ccc(C[C@H](NC(=O)[C@@H]2C3CCC(CC3)N2S(=O)(=O)c2ccccc2)C(=O)O)cc1)c1cc(Cl)nc(Cl)c1,
105 nM,11 nM,O=C(Nc1ccc(C[C@H](NC(=O)C2C3CCC(CC3)N2S(=O)(=O)c2c(Cl)cccc2Cl)C(=O)O)cc1)c1cc(Cl)nc(Cl)c1 (some centres undefined),
